Source: ChEMBL document CHEMBL1201862, “PubChem BioAssay data set” (2004)
The source made the active and inactive calls.

Experiments:
[1] = inhibitors of SNCA 5'UTR-driven reporter translation, confirmation, H4 neuroglioma cells, luminescence (AID 1988); type: functional, cell-based
[2] = HEp-2 cell cytotoxicity, dose response, cytotoxicity control for RSV inhibitor project, HTS (AID 2410); type: functional; conditions: human respiratory syncytial virus
[3] = Luminescence Cell-Based Dose Response HTS to Identify Inhibitors of 5'UTR Stem-Loop Driven Prion Protein mRNA Translation in H4 Neuroglioblastoma Cells. [Related pubchem assays: 1827 (Project Summary), 1813 (Primary HTS)]; type: functional
[4] = inhibitors of firefly luciferase expression or activity, dose response, H4 neuroglioma cells, luminescence (AID 1990); type: functional, cell-based
cells [5] = assay: cells
[6] = Luminescence Cell-Based Dose Retest to Confirm Inhibitors of Cancer Stem Cells. [Related pubchem assays (depositor defined):AID2717, AID2721]; type: functional; conditions: Homo sapiens
[7] = NIH-3T3 fibroblast cytotoxicity, dose response, cytotoxicity control, cell-based, fluorescence, Alamar Blue, secondary assay (AID 2327); type: functional;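 note: NIH-3T3 mouse fibroblasts cultured with fluconazole at 8 µg/mL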
[8] = A cytotoxicity screen of small molecule inhibitors of the PhoP region in Salmonella typhi identified in the primary screen. [Related pubchem assays: 1850, 1864, 1985 ]; type: functional
[9] = C. albicans growth with fluconazole, confirmation, fluorescence, retest (AID 2467); type: functional, cell-based
cells [10] = assay: cells; remark: listed apart in the source
[11] = cytotoxicity toward NIH3T3 fibroblasts, dose response, counter-screen, cell-based, ATP luminescence, mouse fibroblasts (AID 2010); type: functional;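 note: cells exposed to compound for about 90 hours before reading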
[12] = molecular target: T1, Short transient receptor potential channel 4 (Mus musculus, UniProt Q9QUQ5); assay: mouse TRPC4 channel activators, dose response, cell-based, HEK293 TRPC4/mu-opioid, Fluo-4 calcium (AID 434937); type: functional
T1 sequence (Q9QUQ5 whole entry): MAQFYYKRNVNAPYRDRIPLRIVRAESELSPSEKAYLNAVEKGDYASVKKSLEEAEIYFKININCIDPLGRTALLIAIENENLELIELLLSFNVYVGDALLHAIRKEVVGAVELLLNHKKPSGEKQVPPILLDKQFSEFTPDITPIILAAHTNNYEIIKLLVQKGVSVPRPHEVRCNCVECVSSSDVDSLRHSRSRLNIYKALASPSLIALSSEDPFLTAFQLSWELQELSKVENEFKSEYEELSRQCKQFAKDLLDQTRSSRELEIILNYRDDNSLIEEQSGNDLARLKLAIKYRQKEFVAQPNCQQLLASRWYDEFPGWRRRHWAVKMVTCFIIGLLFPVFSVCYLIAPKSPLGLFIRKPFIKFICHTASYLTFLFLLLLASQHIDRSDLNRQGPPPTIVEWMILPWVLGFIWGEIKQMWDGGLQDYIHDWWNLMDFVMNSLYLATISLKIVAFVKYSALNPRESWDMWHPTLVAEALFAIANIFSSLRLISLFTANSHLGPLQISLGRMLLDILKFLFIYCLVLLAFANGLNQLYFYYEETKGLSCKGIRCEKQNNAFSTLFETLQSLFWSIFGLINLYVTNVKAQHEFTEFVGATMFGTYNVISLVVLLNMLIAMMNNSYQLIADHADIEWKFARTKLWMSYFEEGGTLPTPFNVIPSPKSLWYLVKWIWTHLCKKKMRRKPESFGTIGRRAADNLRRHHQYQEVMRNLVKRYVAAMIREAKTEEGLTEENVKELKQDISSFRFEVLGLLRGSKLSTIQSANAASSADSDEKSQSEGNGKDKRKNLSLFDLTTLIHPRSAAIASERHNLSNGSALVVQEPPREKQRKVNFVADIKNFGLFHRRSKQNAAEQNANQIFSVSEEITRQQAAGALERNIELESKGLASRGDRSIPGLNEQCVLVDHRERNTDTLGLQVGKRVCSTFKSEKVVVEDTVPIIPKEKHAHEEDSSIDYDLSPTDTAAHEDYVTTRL

[13] = inhibitors of intracellular T. cruzi replication, confirmation, NIH3T3 host cells, beta-gal luminescence (AID 2044); type: functional, cell-based;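 note: intracellular parasites grown in NIH/3T3 mouse fibroblasts as host cells; luminescent beta-galactosidase reporter signal from transgenic T. cruzi replicating inside host cells; inhibitors lower the luminescence signal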
[14] = molecular target: T2, Calpain-2 catalytic subunit (Sus scrofa, UniProt P43367); assay: pig calpain II inhibitor potency, dose response, biochemical, fluorogenic peptide substrate (AID 1420); type: functional
T2 sequence (P43367 whole entry): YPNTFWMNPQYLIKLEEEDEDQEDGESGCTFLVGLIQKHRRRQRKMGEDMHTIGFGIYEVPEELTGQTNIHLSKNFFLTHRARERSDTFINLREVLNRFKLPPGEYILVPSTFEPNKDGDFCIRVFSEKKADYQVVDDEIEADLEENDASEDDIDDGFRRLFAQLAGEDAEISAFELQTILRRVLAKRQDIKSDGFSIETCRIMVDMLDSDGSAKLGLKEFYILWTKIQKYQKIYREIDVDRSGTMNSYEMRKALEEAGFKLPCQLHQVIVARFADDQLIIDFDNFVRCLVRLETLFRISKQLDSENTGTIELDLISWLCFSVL

Protein skinhead-1 = molecular target: T3, Protein skinhead-1 (Caenorhabditis elegans, UniProt P34707); type: functional
T3 sequence (P34707 whole entry): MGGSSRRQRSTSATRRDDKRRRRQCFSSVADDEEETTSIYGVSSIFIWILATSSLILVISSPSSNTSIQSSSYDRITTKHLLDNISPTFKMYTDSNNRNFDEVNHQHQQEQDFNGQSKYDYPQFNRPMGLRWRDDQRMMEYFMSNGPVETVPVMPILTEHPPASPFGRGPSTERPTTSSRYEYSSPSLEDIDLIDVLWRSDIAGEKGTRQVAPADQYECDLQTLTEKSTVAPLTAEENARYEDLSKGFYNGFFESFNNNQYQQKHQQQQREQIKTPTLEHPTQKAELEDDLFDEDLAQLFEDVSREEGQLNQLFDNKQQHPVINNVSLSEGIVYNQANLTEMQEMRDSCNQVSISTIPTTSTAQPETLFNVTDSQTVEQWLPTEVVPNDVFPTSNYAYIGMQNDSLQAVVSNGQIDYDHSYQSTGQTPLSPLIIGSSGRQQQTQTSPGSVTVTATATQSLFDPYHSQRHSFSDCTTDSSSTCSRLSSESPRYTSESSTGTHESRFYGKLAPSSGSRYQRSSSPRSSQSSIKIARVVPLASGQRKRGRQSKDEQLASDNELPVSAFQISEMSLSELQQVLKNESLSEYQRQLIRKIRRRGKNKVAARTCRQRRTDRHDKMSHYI

[15] = molecular target: T4, Heat shock factor protein 1 (Mus musculus, UniProt P38532); assay: HSF1 potentiators in luciferase reporter cells, confirmation, cell-based, NIH3T3, luminescence, dose retest (AID 435004); type: functional;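 note: stress induced by proteasome inhibitor MG132 added 30 min after compound; luciferase reporter driven by HSF1 response element in NIH3T3 cells; actives raise luminescence as potentiators of the MG132 stress response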
T4 sequence (P38532 whole entry): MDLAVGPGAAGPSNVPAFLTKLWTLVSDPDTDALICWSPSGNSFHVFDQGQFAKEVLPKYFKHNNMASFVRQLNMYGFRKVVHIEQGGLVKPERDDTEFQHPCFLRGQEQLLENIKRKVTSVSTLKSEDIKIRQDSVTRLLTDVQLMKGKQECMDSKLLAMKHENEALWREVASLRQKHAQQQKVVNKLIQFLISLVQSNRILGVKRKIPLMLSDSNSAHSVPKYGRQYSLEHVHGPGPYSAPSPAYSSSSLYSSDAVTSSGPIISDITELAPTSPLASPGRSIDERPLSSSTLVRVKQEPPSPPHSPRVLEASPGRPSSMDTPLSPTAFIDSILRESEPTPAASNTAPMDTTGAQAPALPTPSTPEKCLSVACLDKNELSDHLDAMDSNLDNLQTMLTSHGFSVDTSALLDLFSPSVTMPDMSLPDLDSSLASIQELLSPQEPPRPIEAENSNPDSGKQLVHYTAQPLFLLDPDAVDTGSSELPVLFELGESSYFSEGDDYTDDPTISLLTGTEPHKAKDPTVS

[16] = molecular target: T5, Ubiquitin-conjugating enzyme E2 N (Homo sapiens, UniProt P61088); type: functional;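 note: Dose-response confirmation in a TR-FRET assay detecting UBC13-driven polyubiquitin chain formation, inhibition measured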
T5 sequence (P61088 whole entry): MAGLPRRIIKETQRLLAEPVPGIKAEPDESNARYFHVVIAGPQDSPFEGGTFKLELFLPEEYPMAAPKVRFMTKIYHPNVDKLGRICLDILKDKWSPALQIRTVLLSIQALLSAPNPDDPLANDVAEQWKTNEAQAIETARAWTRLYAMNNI

[17] = growth suppression of beta-catenin-knockout colon cells, dose response, cell-based, HCT116, human colon tumor (AID 1045); type: functional;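 note: HCT116 colon tumor cells with beta catenin knocked out; cells exposed to compound for 60 hours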
[18] = growth suppression of PTEN-null colon cells, dose response, cell-based, HCT116 PTEN knockout (AID 1047); type: functional;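 note: HCT116 colon tumor cells with PTEN knocked out; cells exposed to compound for 60 hours before readout; potency for loss of cell viability measured by luminescence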
Vero = assay: cells; type: functional; conditions: Chlorocebus sabaeus
Cytochrome P450 3A4 = Cytochrome P450 3A4 (Homo sapiens, UniProt P08684); conditions: Potency;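 note: confirmatory qHTS run detecting inhibitors and substrates of CYP3A4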
Sequence of Cytochrome P450 3A4 (P08684 whole entry): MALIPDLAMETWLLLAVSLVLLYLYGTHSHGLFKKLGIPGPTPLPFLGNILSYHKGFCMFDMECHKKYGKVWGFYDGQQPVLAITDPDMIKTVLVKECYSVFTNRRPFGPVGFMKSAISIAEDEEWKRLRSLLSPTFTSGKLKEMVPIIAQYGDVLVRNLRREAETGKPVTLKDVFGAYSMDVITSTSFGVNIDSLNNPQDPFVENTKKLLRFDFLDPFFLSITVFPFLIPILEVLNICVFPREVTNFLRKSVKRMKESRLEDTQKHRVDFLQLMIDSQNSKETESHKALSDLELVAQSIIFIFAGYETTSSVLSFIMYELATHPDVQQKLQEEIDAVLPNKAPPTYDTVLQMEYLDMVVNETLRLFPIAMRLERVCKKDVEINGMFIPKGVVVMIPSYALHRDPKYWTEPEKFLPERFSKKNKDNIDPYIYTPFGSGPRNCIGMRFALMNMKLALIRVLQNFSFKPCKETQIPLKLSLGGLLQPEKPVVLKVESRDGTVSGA

O=C(Nc1ccncc1)c1cc(-c2cccc(Br)c2)nc2ccccc12
EC50 [1]: > 120 µM (not active)
CC50 [2]: 22.7 µM (active)
EC50 [3]: > 120 µM (not active)
EC50 [4]: > 120 µM (not active)
IC50 (cells [5]): 17.4 µM (active)
AC50 [6]: 5.05 µM (active)

O=C(Nc1nonc1NC(=O)c1cccs1)c1cccs1
EC50 [7]: > 150 µM (inactive)
EC50 [8]: > 50 µM (active)
EC50 [9]: 0.44 µM (active)

CC(C)Cc1ccc(CN2CCCC(NC(=O)CCn3cnnn3)C2)cc1 (centres undefined)
EC50 (cells [10]): 0.046 µM (active)
EC50 [11]: > 30 µM (not active)
EC50 [12]: 4.22 µM (active)
EC50 [13]: < 0.1 µM (active)

CCn1nc(C)c(CN2CCCC(C(=O)c3cccc(OC(C)C)c3)C2)c1C (centres undefined)
EC50 (cells [10]): 0.21 µM (active)
EC50 [11]: > 60 µM (not active)
EC50 [13]: < 0.1 µM (active)

COc1ccc(CNc2nc3ccccc3n2C)c(O)c1
EC50 [8]: > 50 µM (active)

CC(=O)Nc1ccc(S(=O)(=O)NCC2CCC(C(=O)NCCC3=CCCCC3)CC2)cc1 (centres undefined)
IC50 [14]: 9.12 µM (not active)

Cc1ccc(S(=O)(=O)NCC(=O)OCN2C(=O)c3ccccc3C2=O)cc1
EC50 [8]: > 50 µM (active)

O=C(CCCN1C(=O)c2cccc3cccc(c23)C1=O)N1CCN(c2ccccn2)CC1
IC50 [14]: 2.13 µM (not active)

O=C(CSc1nc2ccccc2c2nc3ccccc3n12)NCc1ccco1
IC50 (Protein skinhead-1): > 100 µM (inactive)
EC50 [15]: > 260 µM (inactive)
IC50 (cells [5]): 45.6 µM (active)

COc1ccc2cc3cc(C(=O)Nc4ccccc4N4CCN(C)CC4)oc3nc2c1
EC50 [11]: 4.47 µM (active)
IC50 [16]: > 20 µM (inactive)
EC50 [13]: 1.65 µM (active)
EC50 [17]: 2.25 µM (active)
EC50 [18]: 1.43 µM (active)

CN(C)CCCN(C(=O)c1nc2ccccc2s1)c1nc2ccc(F)cc2s1
EC50 (cells [10]): < 0.004 µM (active)
EC50 [11]: > 60 µM (not active)
EC50 [13]: < 0.1 µM (active)
CC50 (Vero): > 25 µM (active)

Cc1ccccc1-n1nnnc1SCc1ncc(-c2ccccc2)o1
IC50 [14]: 5.05 µM (not active)

CCCCCCC#CC1C=CC(Oc2ccc(C=O)cc2)C(CO)O1 (centres undefined)
AC50 (Cytochrome P450 3A4): 3.98 µM (inconclusive)

Cc1c2ccccc2nc2c(F)c(NCCO)c(F)c(F)c12
EC50 [7]: > 160 µM (inactive)
CC50 [2]: 1.77 µM (active)
EC50 [9]: > 38 µM (not active)
IC50 (cells [5]): 1.53 µM (active)

COc1ccccc1NC(=O)/C=C\C(=O)O
IC50 [14]: 17.4 µM (not active)

O=C(OCc1nnc(-c2ccccc2)o1)C12CC3CC(CC(Br)(C3)C1)C2
IC50 [14]: 3.14 µM (not active)

N#Cc1ccc(-c2ccc(OCC(=O)NCCCN3CCCC3=O)cc2)cc1
EC50 [8]: > 50 µM (active)

CCOC(=O)OCC1OC(C#Cc2ccc(C)cc2C)C=CC1OC(=O)OCC (centres undefined)
AC50 (Cytochrome P450 3A4): 3.98 µM (inconclusive)

CCNC(=O)Oc1cccnc1O
EC50 [8]: > 50 µM (active)

CCNC(=S)NCC
AC50 (Cytochrome P450 3A4): 6.31 µM (inconclusive)

C=CCSc1nc2sc3c(c2c(=O)n1-c1ccccc1)CCN(C)C3
EC50 (cells [10]): 0.474 µM (active)
EC50 [11]: > 60 µM (not active)
EC50 [13]: < 0.1 µM (active)

Clc1ccc(C(c2ccccc2)N2CCNCC2)cc1 (centres undefined) [NORCHLORCYCLIZINE]
EC50 [8]: > 50 µM (active)

COc1cc(C/C=C/c2ccccc2)c(OC)cc1O [VIOLASTYRENE]
AC50 (Cytochrome P450 3A4): 39.8 µM (inconclusive)
